# From ChEMBL document CHEMBL5104092, “An insight into the recent development of the clinical candidates for the treatment of malaria and their target proteins” (Eur J Med Chem, 2021)
# What was measured:
# [1] = Dissociation constant, pKa of compound; type: physicochemical
# Plasmodium falciparum [2] = assay: Antimalarial activity against Plasmodium falciparum NF54; type: functional, organism-based
# Plasmodium falciparum [3] = assay: Antimalarial activity against Plasmodium falciparum K1; type: functional, organism-based
# Plasmodium falciparum [4] = assay: In vivo antimalarial activity against Plasmodium falciparum infected in SCID mouse; type: functional
# L6 = assay: Cytotoxicity against rat L6 cells; type: functional, cell-based
# Plasmodium falciparum [5] = assay: Antimalarial activity against chloroquine sensitive Plasmodium falciparum 3D7 incubated for 72 hrs by SYBR green I assay; type: functional, organism-based; conditions: 3D7, 72 h
# [6] = Binding affinity to Plasmodium falciparum quadruple mutant DHFR assessed as inhibition constant
# Plasmodium falciparum [7] = assay: Antimalarial activity against Plasmodium falciparum assessed as increase in parasite swelling diameter at ring stage after 2 hrs by time-lapse live cell imaging (reference value: […]); type: functional
# Plasmodium falciparum [8] = assay: Antimalarial activity against multidrug resistant Plasmodium falciparum W2 after 48 hrs in presence of [3H] hypoxanthine; type: functional, organism-based
# Plasmodium falciparum [9] = assay: Antimalarial activity against multidrug resistant Plasmodium falciparum TM90-C2B after 48 hrs in presence of [3H] hypoxanthine; type: functional, organism-based
# Plasmodium falciparum [10] = assay: Antimalarial activity against multidrug resistant Plasmodium falciparum MRA1239 after 48 hrs in presence of [3H] hypoxanthine; type: functional, organism-based
# Plasmodium falciparum [11] = assay: Antimalarial activity against multidrug resistant Plasmodium falciparum MRA1240 after 48 hrs in presence of [3H] hypoxanthine; type: functional, organism-based
# Plasmodium berghei [12] = assay: In vivo antimalarial activity against Plasmodium berghei infected in mouse administered po for 4 days by Peters 4 day test; type: functional; conditions: 96 h
# [13] = Cmax in mouse blood at 16 mg/kg, po measured upto 28 days by LC-MS analysis; type: ADME, organism-based; set-up: time < 28 day, dose 16 mg/kg, route po
# [14] = Elimination half life in mouse blood at 16 mg/kg, po measured upto 28 days by LC-MS analysis; type: ADME, organism-based; conditions: time < 28 day, read-out: LambdaZ (converted)
# Plasmodium falciparum [15] = assay: Antimalarial activity against chloroquine-sensitive Plasmodium falciparum D6 assessed as parasitic LDH activity incubated for 72 hrs by malstat reagent method; type: functional, organism-based; conditions: D6, 72 h
# Plasmodium falciparum [16] = assay: Antimalarial activity against chloroquine-sensitive Plasmodium falciparum W2 assessed as parasitic LDH activity incubated for 72 hrs by malstat reagent method; type: functional, organism-based; conditions: W2, 72 h
# [17] = Cytotoxicity against African green monkey Vero cells; type: toxicity, cell-based, Chlorocebus sabaeus
# Plasmodium berghei [18] = assay: In vivo antimalarial activity against Plasmodium berghei infected in Balb/C mouse model assessed as parasite clearance at 30 mg/kg, po administered every 24 hrs for 3 days followed by chloroquine addition measured on day 4 by flow cytometric analysis relative to control; type: functional; conditions: time 4 day
# Plasmodium falciparum [19] = assay: Antiplasmodial activity against chloroquine resistant Plasmodium falciparum K1 incubated for 72 hrs by malaria SYBR green I nucleic acid staining dye based fluorescence assay; type: functional, organism-based; conditions: K1, 72 h
# Plasmodium falciparum [20] = assay: Antiplasmodial activity against chloroquine sensitive Plasmodium falciparum 3D7 incubated for 72 hrs by malaria SYBR green I nucleic acid staining dye based fluorescence assay; type: functional, organism-based; conditions: 3D7, 72 h
# Plasmodium yoelii [21] = assay: In vivo antimalarial activity against Plasmodium yoelii N-67 infected in Swiss mouse assessed as reduction in parasitemia level at 12.5 mg/kg, po measured on day 4 relative to control; type: functional; set-up: scale not given: the % may be the effect or the level left; conditions: time 4 day
# [22] = Toxicity in Swiss mouse infected with Plasmodium yoelii N-67 assessed as survival rate at 12.5 mg/kg, po measured on day 4 relative to control; type: organism-based; conditions: in vivo, time 4 day, read-out: Activity
# CYP450 = CYP450 (Homo sapiens, UniProt P04798+P05177+P05181+P08684+P10632+P10635+P11509+P11712+P13584+P20813+P20815+P20853+P24462+P24903+P33260+P33261+P51589+P78329+P98187+Q02928+Q08477+Q16678+Q16696+Q5TCH4+Q6VVX0+Q7Z449+Q8TAV3+Q96SQ9+Q9HB55); assay: Inhibition of CYP450 (unknown origin); type: ADME, protein assay
# [23] = target: Voltage-gated inwardly rectifying potassium channel KCNH2 (Homo sapiens, UniProt Q12809); assay: Inhibition of human ERG; type: toxicity
# Sequence of Voltage-gated inwardly rectifying potassium channel KCNH2 (Q12809 whole entry): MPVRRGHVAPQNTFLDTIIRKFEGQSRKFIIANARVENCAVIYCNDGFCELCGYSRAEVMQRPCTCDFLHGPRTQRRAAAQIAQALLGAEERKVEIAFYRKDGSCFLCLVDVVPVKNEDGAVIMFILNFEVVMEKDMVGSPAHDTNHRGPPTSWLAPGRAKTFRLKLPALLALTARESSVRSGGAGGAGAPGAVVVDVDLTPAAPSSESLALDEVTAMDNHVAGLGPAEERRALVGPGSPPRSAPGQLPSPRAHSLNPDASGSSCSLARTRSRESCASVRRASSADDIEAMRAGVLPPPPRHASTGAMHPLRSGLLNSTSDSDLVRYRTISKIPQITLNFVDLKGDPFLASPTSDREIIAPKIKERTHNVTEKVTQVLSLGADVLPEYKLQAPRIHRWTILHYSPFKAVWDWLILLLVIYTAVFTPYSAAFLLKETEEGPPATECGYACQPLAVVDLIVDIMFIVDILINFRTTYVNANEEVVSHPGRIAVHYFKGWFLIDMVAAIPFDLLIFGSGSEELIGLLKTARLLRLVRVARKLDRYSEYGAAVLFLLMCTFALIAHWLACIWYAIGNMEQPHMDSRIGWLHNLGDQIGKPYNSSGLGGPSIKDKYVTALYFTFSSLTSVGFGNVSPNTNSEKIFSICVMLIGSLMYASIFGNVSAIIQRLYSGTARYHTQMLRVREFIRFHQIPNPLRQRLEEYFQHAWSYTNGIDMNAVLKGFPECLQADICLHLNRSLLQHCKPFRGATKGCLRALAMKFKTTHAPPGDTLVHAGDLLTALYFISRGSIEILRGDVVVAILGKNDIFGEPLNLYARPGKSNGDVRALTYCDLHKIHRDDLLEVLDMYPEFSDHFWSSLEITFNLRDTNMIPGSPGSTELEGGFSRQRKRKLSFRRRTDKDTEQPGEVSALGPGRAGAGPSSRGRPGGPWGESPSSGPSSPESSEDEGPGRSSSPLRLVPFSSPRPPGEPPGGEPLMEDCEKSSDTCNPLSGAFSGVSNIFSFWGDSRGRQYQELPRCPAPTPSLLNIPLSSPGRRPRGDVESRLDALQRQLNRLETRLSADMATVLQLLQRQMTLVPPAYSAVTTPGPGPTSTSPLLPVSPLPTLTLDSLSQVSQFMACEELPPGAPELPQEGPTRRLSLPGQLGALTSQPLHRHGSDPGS
# Plasmodium berghei [24] = assay: In vivo antimalarial activity against Plasmodium berghei infected in mouse model; type: functional
# [25] = Inhibition of Plasmodium flaciparum 3D7_2 membrane recombinant ATP4 expressed in Escherichia coli BL21 (DE3) cells; set-up: species or system Plasmodium falciparum
# [26] = Inhibition of Plasmodium flaciparum B7 membrane recombinant ATP4 expressed in Escherichia coli BL21 (DE3) cells; set-up: species or system Plasmodium falciparum
# [27] = Selectivity ratio of IC50 for Plasmodium falciparum B7 membrane recombinant Na+ dependent ATPase activity to IC50 for Plasmodium falciparum 3D7_2 membrane recombinant Na+ dependent ATPase activity
# Plasmodium yoelii [28] = assay: In vivo antimalarial activity against chloroquine resistant Plasmodium yoelii N-67 infected in Swiss albino mouse assessed as suppression of parasitemia at 10 mg/kg relative to control; type: functional
# [29] = Inhibition of Plasmodium vivax PI4K
# Plasmodium berghei [30] = assay: In vivo antimalarial activity against Plasmodium berghei infected in SCID mouse; type: functional
# Plasmodium falciparum [31] = assay: Antiplasmodial activity against chloroquine sensitive Plasmodium falciparum NF54 by parasite lactate dehydrogenase assay; type: functional, organism-based
# [32] = Inhibition of Plasmodium falciparum DHODH expressed in Escherichia coli BL21 (DE3) cells by DCIP staining method
# [33] = Inhibition of Plasmodium falciparum DHODH expressed in Escherichia coli BL21 cells using L-dihydroorotate as substrate by DCIP staining method
# Plasmodium falciparum [34] = assay: Antimalarial activity against Plasmodium falciparum 3D7 incubated for 72 hrs by SYBR-green method; type: functional, organism-based; conditions: 3D7, 72 h
# Plasmodium falciparum [35] = assay: Antimalarial activity against Plasmodium falciparum Dd2; type: functional, organism-based
# HepG2 = assay: Cytotoxicity against human HepG2 cells; type: functional, cell-based
# Plasmodium yoelii [36] = assay: In vivo antimalarial activity against Plasmodium yoelii infected in mouse; type: functional
# [37] = Cytotoxicity against human HEK293 cells; type: toxicity, cell-based
# A549 = assay: Cytotoxicity against human A549 cells; type: functional
# Plasmodium falciparum [38] = assay: Antimalarial activity against Plasmodium falciparum 3D7; type: functional, organism-based
# [39] = system: Plasmodium yoelii nigeriensis; assay: In vivo antimalarial activity against Plasmodium yoelii nigeriensis infected in Swiss mouse; type: functional
# Plasmodium falciparum [40] = assay: Antimalarial activity against chloroquine sensitive Plasmodium falciparum 3D7 incubated for 72 hrs by malaria SYBR green I nucleic acid staining dye based fluorescence assay; type: functional, organism-based; conditions: 3D7, 72 h
# Plasmodium falciparum [41] = assay: Antimalarial activity against multidrug resistant Plasmodium falciparum Dd2 incubated for 72 hrs by malaria SYBR green I nucleic acid staining dye based fluorescence assay; type: functional, organism-based; conditions: Dd2, 72 h
# Plasmodium falciparum [42] = assay: Antimalarial activity against multidrug resistant Plasmodium falciparum K1 incubated for 72 hrs by malaria SYBR green I nucleic acid staining dye based fluorescence assay; type: functional, organism-based; conditions: K1, 72 h
# Plasmodium falciparum [43] = assay: Antimalarial activity against chloroquine resistant Plasmodium falciparum K1 incubated for 72 hrs by malaria SYBR green I nucleic acid staining dye based fluorescence assay; type: functional, organism-based; conditions: K1, 72 h
# Plasmodium yoelii [44] = assay: In vivo antimalarial activity against chloroquine resistant Plasmodium yoelii N-67 infected in Swiss albino mouse assessed as suppression of parasitemia at 25 mg/kg measured upto 28 days relative to control; type: functional; conditions: time <= 28 day
# Plasmodium falciparum [45] = assay: In vivo antimalarial activity against Plasmodium falciparum infected in NMRI mouse; type: functional
# Plasmodium falciparum [46] = assay: Antimalarial activity against chloroquine sensitive Plasmodium falciparum T96 infected in human erythrocytes by microplate fluorometric detection method; type: functional, organism-based
# Plasmodium falciparum [47] = assay: Antimalarial activity against chloroquine resistant Plasmodium falciparum K1 infected in human erythrocytes by microplate fluorometric detection method; type: functional, organism-based
# Plasmodium falciparum [48] = assay: Antimalarial activity against chloroquine resistant Plasmodium falciparum Dd2 incubated for 72 hrs by malaria SYBR green I based assay; type: functional, organism-based; conditions: Dd2, 72 h
# [49] = Inhibition of Plasmodium falciparum recombinant DHODH incubated for 5 mins by microplate reader method
smiles,measurement,setting,value
CC(=O)N1CCN(c2ccc(CN(C(=O)/C=C/c3ccc(C(F)(F)F)cc3)[C@@H](Cc3ccccc3)C(=O)N3CCN(Cc4ccc(N(C)CCO)cc4)CC3)cc2)CC1,pKa,[1],7.5
same,IC50,Plasmodium falciparum [2],10 nM
same,IC50,Plasmodium falciparum [3],0.46 nM
same,ED90,Plasmodium falciparum [4],8.4 mg/kg
same,IC50,L6,8850 nM
C=C(c1ccc(C)cc1C)C1COC2(CCC(Nc3ccccc3)CC2)OO1 (stereo not drawn),IC50,Plasmodium falciparum [5],19.6 nM
CCc1nc(N)nc(N)c1OCCCOc1ccccc1CCC(=O)O,pKa,[1],4.5
same,Ki,[6],0.54 nM
CC(C)c1nc2ccccc2n1CC(=O)Nc1c(-c2ccc(Cl)cc2F)c(C(F)(F)F)nn1C,Activity,Plasmodium falciparum [7],4.6 µm
CN(C(=S)NN=C(c1ccccn1)c1ccccn1)c1ccccc1,EC50,Plasmodium falciparum [8],6.2 nM
same,EC50,Plasmodium falciparum [9],13 nM
same,EC50,Plasmodium falciparum [10],6.9 nM
same,EC50,Plasmodium falciparum [11],9.1 nM
same,ED50,Plasmodium berghei [12],1.2 mg/kg/day
same,Cmax,[13],1880 ng/mL
same,half-life,[14],48.7 h
c1cc(N2CCOCC2)nc(NCCNc2nc(N3CCOCC3)nc(N3CCOCC3)n2)n1,IC50,Plasmodium falciparum [15],1180 nM
same,IC50,Plasmodium falciparum [16],1320 nM
same,IC50,[17],> 10100 nM
CN1CCN(c2nc(Cl)cc(NCCNc3ccnc4cc(Cl)ccc34)n2)CC1,Activity,Plasmodium berghei [18],93.9%
CCC1CCN(CC(CC(C)C)Nc2ccnc3cc(Cl)ccc23)CC1 (stereo not drawn),IC50,Plasmodium falciparum [19],97.8 nM
same,IC50,Plasmodium falciparum [20],57 nM
same,Activity,Plasmodium yoelii [21],100%
same,survival at 96 h,[22],100%
CC1(C)c2nc(-c3ccc(F)cc3)c(Nc3ccc(F)cc3)n2CCN1C(=O)CN [GANAPLACIDE],pKa,[1],7.3
same,IC50,CYP450,> 6000 nM
same,IC50,[23],13400 nM
same,ED99,Plasmodium berghei [24],2.2 mg/kg
CCC(CC)Nc1nc(C)c(C#N)c2ccccc12,IC50,[25],70 nM
same,IC50,[26],429 nM
same,Ratio IC50,[27],6
CC(C)C[C@@H](CN1CCN(C)CC1)Nc1ccnc2cc(Cl)ccc12.Cl,Activity,Plasmodium yoelii [28],100%
Nc1ncc(-c2ccc(C(=O)N3CCNCC3)cc2)nc1-c1ccc(C(F)(F)F)cc1,pKa,[1],8.1
same,IC50,Plasmodium falciparum [2],5.4 nM
same,IC50,Plasmodium falciparum [3],4.7 nM
same,IC50,[29],23 nM
same,ED90,Plasmodium berghei [30],0.25 mg/kg
CCOC(=O)C(=CNc1cccc(N(C)C)c1)C(=O)OCC,IC50,Plasmodium falciparum [31],26000 nM
COC(=O)[C@]1(C)C[C@H](c2ccccc2)N2[C@@H](C)CC(=O)N21,IC50,[32],2900 nM
Cc1nc(Nc2ccc(S(F)(F)(F)(F)F)cc2)c2c(C)noc2n1,IC50,[33],36 nM
same,EC50,Plasmodium falciparum [34],17 nM
COc1cc2[nH]c(C)c(-c3ccc(Oc4ccc(OC(F)(F)F)cc4)cc3)c(=O)c2cc1Cl,EC50,Plasmodium falciparum [35],2.5 nM
same,IC50,HepG2,> 10000 nM
same,ED90,Plasmodium yoelii [36],0.02 mg/kg
COc1ccc(NC(=O)N2CCCCN3C[C@H](c4ccc(C#Cc5ccccc5)cc4)[C@@H]3C2)cc1,EC50,Plasmodium falciparum [35],15 nM
same,CC50,HepG2,> 50000 nM
same,CC50,[37],> 50000 nM
same,CC50,A549,38000 nM
C=C(c1ccc(OC(C)(C)COC(=O)CCC(=O)O)cc1)C1COC2(OO1)C1CC3CC(C1)CC2C3 (stereo not drawn),pKa,[1],4
same,IC50,Plasmodium falciparum [38],49 nM
same,ED90,[39],18.3 mg/kg
C[C@@H]1CCC2[C@@H](C)[C@H](OC(=O)CCC(=O)NCCNc3ccnc4cc(Cl)ccc34)O[C@@H]3O[C@]4(C)CC[C@@H]1[C@@]23OO4 (stereo partly drawn),EC50,Plasmodium falciparum [40],2.7 nM
same,EC50,Plasmodium falciparum [41],1 nM
same,EC50,Plasmodium falciparum [42],0.78 nM
CC(C)C[C@@H](CN1CCN(C)CC1)Nc1ccnc2cc(Cl)ccc12,IC50,Plasmodium falciparum [43],13.6 nM
same,IC50,Plasmodium falciparum [40],8.8 nM
same,Activity,Plasmodium yoelii [44],100%
C[C@H]1Cc2c([nH]c3cc(Cl)c(F)cc23)[C@@]2(N1)C(=O)Nc1ccc(Cl)cc12 [CIPARGAMIN],pKa,[1],4.6
same,ED90,Plasmodium falciparum [45],2.7 mg/kg
COC(=O)CC[C@@H](C)[C@H]1CCC2C3CC[C@@H]4CC5(CC[C@]4(C)C3C[C@H](OC(C)=O)[C@@]21C)OOC(C)(C)OO5 (stereo partly drawn),EC50,Plasmodium falciparum [46],131 nM
same,EC50,Plasmodium falciparum [47],3 nM
CN(C)CCNc1cc(/C=C/c2ccncc2)nc2ccccc12,IC50,Plasmodium falciparum [48],33 nM
c1c2c(cc3c1OCO3)-c1cc3ccc4c(c3c[n+]1CC2)OCO4 [COPTISINE],IC50,[49],1830 nM
